Results from publication PMC9014410, “Discovery of V-0219: A Small-Molecule Positive Allosteric Modulator of the Glucagon-Like Peptide-1 Receptor toward Oral Treatment for “Diabesity”” (Journal of Medicinal Chemistry, 2022).

Target: hGLP-1R (Homo sapiens, UniProt P43220)
Assay: cAMP accumulation in HEK-293 cells expressing hGLP-1R (HEK-GLP-1 cells)
Assay type: cell-based
Conditions: HEK293, read-out: Potentiation of GLP-1 Emax at 10 ?M in a cAMP assay (%); 10 ?M compound (supplementary csv)
Experimental: After this time the culture medium was replaced by 20 μL fresh Opti-MEM containing 500 μM IBMX and 100 μM K579 and incubated with gentle stirring for 10 min at rt. […] Concentration-response curves were fitted to a 4-parameter logistic equation by using GraphPad Prism 2.1 software.

hGLP-1R, sequence (P43220 24-463): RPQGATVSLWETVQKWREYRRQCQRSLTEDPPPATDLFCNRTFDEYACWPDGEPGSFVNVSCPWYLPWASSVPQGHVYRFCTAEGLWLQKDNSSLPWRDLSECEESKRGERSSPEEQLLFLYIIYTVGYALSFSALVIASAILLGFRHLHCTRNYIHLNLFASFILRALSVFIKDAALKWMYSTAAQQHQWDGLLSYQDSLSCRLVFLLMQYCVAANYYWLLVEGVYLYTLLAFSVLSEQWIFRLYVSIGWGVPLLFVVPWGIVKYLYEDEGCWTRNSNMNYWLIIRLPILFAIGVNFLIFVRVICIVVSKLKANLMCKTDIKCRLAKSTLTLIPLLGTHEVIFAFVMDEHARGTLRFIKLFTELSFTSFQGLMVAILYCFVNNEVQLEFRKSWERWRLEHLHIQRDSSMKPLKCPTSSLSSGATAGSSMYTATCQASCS

| Structure (SMILES) | Emax |
| --- | --- |
| COC(=O)c1cccc(-c2noc(CN3CCCC(CN4CCOCC4)C3)n2)c1 (stereo not shown) [S82] | < 30% |
| O=C(CC1CCN(Cc2nc(-c3ccc(C(F)(F)F)cc3)no2)CC1)NS(=O)(=O)c1ccc(OC(F)(F)F)cc1 [S63] | < 30% |
| Clc1ccc(-c2noc(CN3CCCC(CN4CCOCC4)C3)n2)cc1 (stereo not shown) [S81] | < 30% |
| CNC(=O)c1cccc(-c2noc(CN3CCCC(CN4CCOCC4)C3)n2)c1 (stereo not shown) [S86] | < 30% |
| O=S(=O)(NC1CCN(Cc2nc(-c3ccc(C(F)(F)F)cc3)no2)CC1)c1ccc(OC(F)(F)F)cc1 [S17] | < 30% |
| O=S(=O)(NC1CCN(Cc2nc(-c3ccc(C(F)(F)F)cc3)no2)CC1)c1ccccc1F [S12] | < 30% |
| CCCS(=O)(=O)NCC1CCN(Cc2nc(-c3ccc(C(F)(F)F)cc3)no2)CC1 [S21] | < 30% |
| Fc1cccc(-c2noc(CN3CCCC(CN4CCOCC4)C3)n2)c1 (stereo not shown) [S77] | < 30% |
| Cc1ccc([N+](=O)[O-])cc1S(=O)(=O)NC1CCN(Cc2nc(-c3ccc(C(F)(F)F)cc3)no2)CC1 [S19] | < 30% |
| COc1ccc(S(=O)(=O)NCC2CCN(Cc3nc(-c4ccc(C(F)(F)F)cc4)no3)CC2)cc1 [S34] | < 30% |
| O=C(NS(=O)(=O)c1ccc(Cl)cc1)C1CCN(Cc2nc(-c3ccc(C(F)(F)F)cc3)no2)CC1 [S46] | < 30% |
| O=S(=O)(NC1CCN(Cc2nc(-c3ccc(C(F)(F)F)cc3)no2)CC1)c1cccc(Cl)c1 [S10] | < 30% |
| O=[N+]([O-])c1ccccc1S(=O)(=O)NCC1CCN(Cc2nc(-c3ccc(C(F)(F)F)cc3)no2)CC1 [S24] | < 30% |
| Cc1ccccc1S(=O)(=O)NC1CCN(Cc2nc(-c3ccc(C(F)(F)F)cc3)no2)CC1 [S15] | < 30% |
| Cc1ccccc1S(=O)(=O)NC(=O)CC1CCN(Cc2nc(-c3ccc(C(F)(F)F)cc3)no2)CC1 [S60] | < 30% |
| O=C(CC1CCN(Cc2nc(-c3ccc(C(F)(F)F)cc3)no2)CC1)NS(=O)(=O)c1ccc(Cl)cc1 [S59] | < 30% |
| CCCS(=O)(=O)NC(=O)CC1CCN(Cc2nc(-c3ccc(C(F)(F)F)cc3)no2)CC1 [S53] | < 30% |
| Fc1ccc(-c2noc(CN3CCCC(CN4CCOCC4)C3)n2)cc1 (stereo not shown) [S78] | < 30% |
| O=S(=O)(NCC1CCN(Cc2nc(-c3ccc(C(F)(F)F)cc3)no2)CC1)c1ccccc1Cl [S28] | < 30% |
| COc1ccc(Br)cc1S(=O)(=O)NC1CCN(Cc2nc(-c3ccc(C(F)(F)F)cc3)no2)CC1 [S18] | < 30% |
| CC(=O)c1cccc(S(=O)(=O)NC2CCN(Cc3nc(-c4ccc(C(F)(F)F)cc4)no3)CC2)c1 [S4] | < 30% |
| O=[N+]([O-])c1ccccc1S(=O)(=O)NC1CCN(Cc2nc(-c3ccc(C(F)(F)F)cc3)no2)CC1 [S5] | < 30% |

| Structure (SMILES) | Emax |
| --- | --- |
| O=S(=O)(NC1CCN(Cc2nc(-c3ccc(C(F)(F)F)cc3)no2)CC1)c1ccc(F)cc1 [S14] | < 30% |
| O=S(=O)(NCC1CCN(Cc2nc(-c3ccc(C(F)(F)F)cc3)no2)CC1)c1ccc(C(F)(F)F)cc1 [S35] | < 30% |
| Cc1cccc(-c2noc(CN3CCCC(CN4CCOCC4)C3)n2)c1 (stereo not shown) [S68] | < 30% |
| O=C(NS(=O)(=O)c1ccccc1Cl)C1CCN(Cc2nc(-c3ccc(C(F)(F)F)cc3)no2)CC1 [S44] | < 30% |
| O=S(=O)(NCC1CCN(Cc2nc(-c3ccc(C(F)(F)F)cc3)no2)CC1)c1cccc(Cl)c1 [S29] | < 30% |
| O=S(=O)(NCC1CCN(Cc2nc(-c3ccc(C(F)(F)F)cc3)no2)CC1)c1ccc(OC(F)(F)F)cc1 [S36] | < 30% |
| CC(=O)c1cccc(S(=O)(=O)NC(=O)CC2CCN(Cc3nc(-c4ccc(C(F)(F)F)cc4)no3)CC2)c1 [S55] | < 30% |
| Fc1ccccc1-c1noc(CN2CCCC(CN3CCOCC3)C2)n1 (stereo not shown) [S76] | < 30% |
| O=C(NS(=O)(=O)Cc1ccccc1)C1CCN(Cc2nc(-c3ccc(C(F)(F)F)cc3)no2)CC1 [S39] | < 30% |
| Cc1ccc(-c2noc(CN3CCCC(CN4CCOCC4)C3)n2)cc1 (stereo not shown) [S69] | < 30% |
| Clc1cccc(-c2noc(CN3CCCC(CN4CCOCC4)C3)n2)c1 (stereo not shown) [S80] | < 30% |
| O=C(CC1CCN(Cc2nc(-c3ccc(C(F)(F)F)cc3)no2)CC1)NS(=O)(=O)c1cccc(F)c1 [S56] | < 30% |
| CC(=O)c1cccc(S(=O)(=O)NC(=O)C2CCN(Cc3nc(-c4ccc(C(F)(F)F)cc4)no3)CC2)c1 [S40] | < 30% |
| FC(F)(F)c1ccccc1-c1noc(CN2CCCC(CN3CCOCC3)C2)n1 (stereo not shown) [S65] | < 30% |
| O=C(NS(=O)(=O)c1ccc(C(F)(F)F)cc1)C1CCN(Cc2nc(-c3ccc(C(F)(F)F)cc3)no2)CC1 [S49] | < 30% |
| O=S(=O)(NCC1CCN(Cc2nc(-c3ccc(C(F)(F)F)cc3)no2)CC1)c1ccc(Cl)cc1 [S30] | < 30% |
| NC(=O)c1ccc(-c2noc(CN3CCCC(CN4CCOCC4)C3)n2)cc1 (stereo not shown) [S85] | < 30% |
| O=S(=O)(NC1CCN(Cc2nc(-c3ccc(C(F)(F)F)cc3)no2)CC1)c1ccc(Cl)cc1 [S11] | < 30% |
| N#Cc1ccc(S(=O)(=O)NCC2CCN(Cc3nc(-c4ccc(C(F)(F)F)cc4)no3)CC2)cc1 [S27] | < 30% |
| N#Cc1ccccc1S(=O)(=O)NCC1CCN(Cc2nc(-c3ccc(C(F)(F)F)cc3)no2)CC1 [S25] | < 30% |
| N#Cc1cccc(S(=O)(=O)NC2CCN(Cc3nc(-c4ccc(C(F)(F)F)cc4)no3)CC2)c1 [S8] | < 30% |

Further lines, results first:

| Emax | Structure (SMILES) |
| --- | --- |
| < 30% | CCCS(=O)(=O)NC(=O)C1CCN(Cc2nc(-c3ccc(C(F)(F)F)cc3)no2)CC1 [S38] |
| < 30% | FC(F)(F)c1cccc(-c2noc(CN3CCCC(CN4CCOCC4)C3)n2)c1 (stereo not shown) [S66] |
| < 30% | O=C(CC1CCN(Cc2nc(-c3ccc(C(F)(F)F)cc3)no2)CC1)NS(=O)(=O)c1ccc(C(F)(F)F)cc1 [S62] |
| < 30% | O=C(CC1CCN(Cc2nc(-c3ccc(C(F)(F)F)cc3)no2)CC1)NS(=O)(=O)Cc1ccccc1 [S54] |
| < 30% | O=S(=O)(Cc1ccccc1)NCC1CCN(Cc2nc(-c3ccc(C(F)(F)F)cc3)no2)CC1 [S22] |
| < 30% | CCCS(=O)(=O)NC1CCN(Cc2nc(-c3ccc(C(F)(F)F)cc3)no2)CC1 [S2] |
| < 30% | O=C(NS(=O)(=O)c1ccc(OC(F)(F)F)cc1)C1CCN(Cc2nc(-c3ccc(C(F)(F)F)cc3)no2)CC1 [S50] |
| < 30% | NC(=O)c1cccc(-c2noc(CN3CCCC(CN4CCOCC4)C3)n2)c1 (stereo not shown) [S84] |
| < 30% | O=S(=O)(NC1CCN(Cc2nc(-c3ccc(C(F)(F)F)cc3)no2)CC1)c1ccc(C(F)(F)F)cc1 [S16] |
| < 30% | COc1ccc(Br)cc1S(=O)(=O)NC(=O)CC1CCN(Cc2nc(-c3ccc(C(F)(F)F)cc3)no2)CC1 [S64] |
| < 30% | CNc1ccc(-c2noc(CN3CCCC(CN4CCOCC4)C3)n2)cc1 (stereo not shown) [S75] |
| < 30% | CNc1cccc(-c2noc(CN3CCCC(CN4CCOCC4)C3)n2)c1 (stereo not shown) [S74] |
| < 30% | CS(=O)(=O)NC1CCN(Cc2nc(-c3ccc(C(F)(F)F)cc3)no2)CC1 [S1] |
| < 30% | O=S(=O)(Cc1ccccc1)NC1CCN(Cc2nc(-c3ccc(C(F)(F)F)cc3)no2)CC1 [S3] |
| < 30% | CC(=O)c1cccc(S(=O)(=O)NCC2CCN(Cc3nc(-c4ccc(C(F)(F)F)cc4)no3)CC2)c1 [S23] |
| < 30% | CS(=O)(=O)NCC1CCN(Cc2nc(-c3ccc(C(F)(F)F)cc3)no2)CC1 [S20] |
| < 30% | O=C(NS(=O)(=O)c1cccc(Cl)c1)C1CCN(Cc2nc(-c3ccc(C(F)(F)F)cc3)no2)CC1 [S45] |
| < 30% | COc1ccc(S(=O)(=O)NC(=O)C2CCN(Cc3nc(-c4ccc(C(F)(F)F)cc4)no3)CC2)cc1 [S48] |
| < 30% | N#Cc1cccc(S(=O)(=O)NCC2CCN(Cc3nc(-c4ccc(C(F)(F)F)cc4)no3)CC2)c1 [S26] |
| < 30% | O=C(NS(=O)(=O)c1ccccc1F)C1CCN(Cc2nc(-c3ccc(C(F)(F)F)cc3)no2)CC1 [S41] |

| Emax | Structure (SMILES) |
| --- | --- |
| < 30% | O=C(NS(=O)(=O)c1ccc(F)cc1)C1CCN(Cc2nc(-c3ccc(C(F)(F)F)cc3)no2)CC1 [S43] |
| < 30% | COC(=O)c1ccc(-c2noc(CN3CCCC(CN4CCOCC4)C3)n2)cc1 (stereo not shown) [S83] |
| < 30% | N#Cc1ccc(S(=O)(=O)NC2CCN(Cc3nc(-c4ccc(C(F)(F)F)cc4)no3)CC2)cc1 [S9] |
| < 30% | Cc1ccccc1S(=O)(=O)NCC1CCN(Cc2nc(-c3ccc(C(F)(F)F)cc3)no2)CC1 [S33] |
| < 30% | CNc1ccccc1-c1noc(CN2CCCC(CN3CCOCC3)C2)n1 (stereo not shown) [S73] |
| < 30% | COc1ccccc1-c1noc(CN2CCCC(CN3CCOCC3)C2)n1 (stereo not shown) [S70] |
| < 30% | COc1cccc(-c2noc(CN3CCCC(CN4CCOCC4)C3)n2)c1 (stereo not shown) [S71] |
| < 30% | N#Cc1ccccc1S(=O)(=O)NC1CCN(Cc2nc(-c3ccc(C(F)(F)F)cc3)no2)CC1 [S7] |
| < 30% | Cc1ccccc1-c1noc(CN2CCCC(CN3CCOCC3)C2)n1 (stereo not shown) [S67] |
| < 30% | CCS(=O)(=O)NC(=O)C1CCN(Cc2nc(-c3ccc(C(F)(F)F)cc3)no2)CC1 [S37] |
| < 30% | COc1ccc(S(=O)(=O)NC(=O)CC2CCN(Cc3nc(-c4ccc(C(F)(F)F)cc4)no3)CC2)cc1 [S61] |
| < 30% | COc1ccc(Br)cc1S(=O)(=O)NC(=O)C1CCN(Cc2nc(-c3ccc(C(F)(F)F)cc3)no2)CC1 [S51] |
| < 30% | COc1ccc(-c2noc(CN3CCCC(CN4CCOCC4)C3)n2)cc1 (stereo not shown) [S72] |
| < 30% | O=S(=O)(NCC1CCN(Cc2nc(-c3ccc(C(F)(F)F)cc3)no2)CC1)c1ccc(F)cc1 [S32] |
| < 30% | O=S(=O)(NCC1CCN(Cc2nc(-c3ccc(C(F)(F)F)cc3)no2)CC1)c1cccc(F)c1 [S31] |
| < 30% | CNC(=O)c1ccc(-c2noc(CN3CCCC(CN4CCOCC4)C3)n2)cc1 (stereo not shown) [S87] |
| < 30% | O=C(CC1CCN(Cc2nc(-c3ccc(C(F)(F)F)cc3)no2)CC1)NS(=O)(=O)c1cccc(Cl)c1 [S58] |
| < 30% | CS(=O)(=O)NC(=O)CC1CCN(Cc2nc(-c3ccc(C(F)(F)F)cc3)no2)CC1 [S52] |
| < 30% | Cc1ccccc1S(=O)(=O)NC(=O)C1CCN(Cc2nc(-c3ccc(C(F)(F)F)cc3)no2)CC1 [S47] |
